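Results reflect a 48-hour exposure of cells in 96-well plates to compound at five concentrations. TGI: total growth inhibition.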
Experiments:
Experiment in all cases: NCI anticancer screen, dose series, 48 h
[1] = tested on: DMS 273 small cell lung
[2] = tested on: KM20L2 colon
[3] = tested on: RXF-631 renal
[4] = tested on: HOP-18 NSCLC
[5] = tested on: DMS 114 small cell lung
[6] = tested on: SNB-78 CNS
[7] = tested on: LXFL 529 NSCLC
[8] = tested on: XF 498 CNS
[9] = tested on: DLD-1 colon

CCc1cccc(C(C)C)c1NC(=O)C(=O)C(C(=O)C(=O)OC)c1nc2ccccc2[nH]c1=O (stereo unspecified)
TGI [1]: > 100 µM
TGI [2]: > 100 µM
TGI [3]: > 100 µM
TGI [4]: > 100 µM
TGI [5]: > 100 µM
TGI [6]: > 100 µM
TGI [7]: > 100 µM
TGI [8]: > 100 µM

Cc1ccc(NC(=O)CC(=O)n2nc(-c3ccccc3)c(N=Nc3ccc(Cl)cc3)c2-c2ccccc2)cc1
TGI [1]: > 100 µM
TGI [2]: > 100 µM
TGI [3]: > 100 µM
TGI [9]: 54.4 µM
TGI [4]: > 100 µM
TGI [5]: > 100 µM
TGI [6]: > 100 µM
TGI [7]: > 100 µM

CC12O[C@H](c3ccccc3)[C@H](c3ccccc3)N1C(=O)C1(C(=O)OCc3ccccc3)CC12 (stereo partly specified)
TGI [1]: > 100 µM
TGI [2]: > 100 µM
TGI [3]: > 100 µM
TGI [9]: > 100 µM
TGI [5]: > 100 µM
TGI [7]: > 100 µM
TGI [8]: > 100 µM

CN(C)C(=O)CC(C(=O)O)c1c[nH]c2ccccc12 (stereo unspecified)
TGI [1]: > 100 µM
TGI [2]: > 100 µM
TGI [3]: > 100 µM
TGI [9]: > 100 µM
TGI [5]: > 100 µM
TGI [7]: > 100 µM

N#C/C(=C/c1cccnc1)C(=O)c1ccccc1
TGI [1]: > 100 µM
TGI [2]: > 100 µM
TGI [9]: > 100 µM
TGI [4]: > 100 µM
TGI [5]: > 100 µM
TGI [6]: > 100 µM
TGI [7]: > 100 µM
TGI [8]: > 100 µM

C[n+]1c2ccccc2c(CNC(CCC(N)=O)C(=O)O)c2ccccc21 (stereo unspecified)
TGI [1]: 4.44 µM
TGI [2]: 12.3 µM
TGI [9]: 1.83 µM
TGI [4]: 11.8 µM
TGI [5]: 2.04 µM
TGI [6]: 25.7 µM
TGI [7]: 2.26 µM
TGI [8]: 3.81 µM

NC(=O)N/N=C(\Cc1nc2ccc(C(=O)c3ccccc3)cc2[nH]c1=O)C(=O)Nc1ccc(Br)cc1
TGI [1]: > 100 µM
TGI [2]: > 100 µM
TGI [9]: > 100 µM
TGI [4]: > 100 µM
TGI [5]: > 100 µM
TGI [6]: > 100 µM
TGI [7]: > 100 µM
TGI [8]: > 100 µM

Cc1cc(N(CCC#N)CCC#N)ccc1/C=C(\NC(=O)/C=C/c1ccccc1)NC(=O)Nc1ccc(Cl)cc1
TGI [1]: > 100 µM
TGI [9]: > 100 µM
TGI [5]: > 100 µM
TGI [7]: > 100 µM
TGI [8]: > 100 µM

O=C(CSc1nnc(Cc2ccccc2)o1)Nc1ccc(Cl)cc1
TGI [1]: > 100 µM
TGI [2]: > 100 µM
TGI [9]: > 100 µM
TGI [4]: > 100 µM
TGI [5]: > 100 µM
TGI [6]: > 100 µM
TGI [7]: > 100 µM

CCOC(OCC)C(CC)[Se]c1ccccc1[N+](=O)[O-] (stereo unspecified)
TGI [1]: 11.3 µM
TGI [2]: 6.36 µM
TGI [9]: > 90.2 µM
TGI [4]: > 100 µM
TGI [6]: > 100 µM
TGI [7]: > 100 µM
TGI [8]: > 49 µM

O=[N+]([O-])c1ccc(NC2OCC(O)C(O)C2O)cc1 (stereo unspecified)
TGI [1]: > 100 µM
TGI [2]: > 100 µM
TGI [3]: > 100 µM
TGI [9]: > 100 µM
TGI [5]: > 100 µM
TGI [6]: > 100 µM
TGI [7]: > 100 µM
TGI [8]: > 100 µM

Nc1nc2c(ncn2CCOC(c2ccccc2)P(=O)(O)O)c(=O)[nH]1 (stereo unspecified)
TGI [1]: > 100 µM
TGI [2]: > 100 µM
TGI [9]: > 100 µM
TGI [6]: > 100 µM
TGI [7]: > 100 µM

Cc1cc2c(c3oc(C(O)(CO)C4CO4)cc(=O)c13)C(=O)c1c(O)cccc1C2=O (stereo unspecified)
TGI [3]: > 100 µM
TGI [4]: 0.0358 µM
TGI [6]: > 100 µM

Cc1cc(Cc2cc(C)c(NC(=O)C(=O)C3C(=O)NC(=S)NC3=O)c(C(C)C)c2)cc(C(C)C)c1NC(=O)C(=O)C1C(=O)NC(=S)NC1=O
TGI [1]: > 100 µM
TGI [2]: > 100 µM
TGI [3]: > 100 µM
TGI [9]: > 100 µM
TGI [4]: > 100 µM
TGI [5]: > 100 µM
TGI [6]: > 100 µM
TGI [7]: > 100 µM

CN1N=C2c3ccccc3CC[C@H]2C1c1ccccc1 (stereo partly specified)
TGI [1]: > 100 µM
TGI [2]: > 100 µM
TGI [9]: > 100 µM
TGI [4]: > 100 µM
TGI [5]: 70.8 µM
TGI [6]: > 100 µM
TGI [7]: > 100 µM

CCSc1nc2sc(C)c(C)c2c(=O)n1-c1ccc(C(=O)O)cc1
TGI [2]: > 100 µM
TGI [9]: > 100 µM
TGI [4]: 48.6 µM
TGI [5]: > 100 µM
TGI [6]: > 100 µM
TGI [8]: > 100 µM

O=c1ccc2ccccc2o1
TGI [2]: > 100 µM
TGI [9]: > 100 µM
TGI [4]: > 100 µM
TGI [5]: > 100 µM
TGI [6]: > 100 µM
TGI [7]: > 100 µM
TGI [8]: > 100 µM

— PubChem BioAssay (NCI)
